{
  "source": "patent US7741280B2",
  "about": "“Multimeric molecules, the preparation method thereof and use of same for the preparation of medicaments” (Centre National de la Recherche Scientifique, priority 2002, dated 2010)",
  "key": {"CD40-CD40L interaction [1]": {"target": "T1, CD40-CD40L interaction (Homo sapiens, UniProt P25942)", "T1 construct": "they receive a signal via the CD40 molecule, which they express in a constitutive manner; endogenous in cells; host or cells: BL41 Burkitt's lymphoma cells (endogenous CD40), co-cultured with 3T6 fibroblasts transfected with CD40L", "T1 sequence (P25942 21-277)": "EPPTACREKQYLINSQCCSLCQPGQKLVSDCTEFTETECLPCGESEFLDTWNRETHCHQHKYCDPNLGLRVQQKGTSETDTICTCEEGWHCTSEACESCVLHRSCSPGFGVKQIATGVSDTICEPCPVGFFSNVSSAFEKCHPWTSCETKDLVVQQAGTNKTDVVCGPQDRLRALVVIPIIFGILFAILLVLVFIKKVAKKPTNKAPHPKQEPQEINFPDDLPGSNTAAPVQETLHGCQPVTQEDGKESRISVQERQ", "assay": "Expression of CD95 induced by CD40L on BL41 cells cultured with 3T6-CD40L fibroblasts (flow cytometry)", "assay_type": "cell-based", "conditions": "concentration of 50 μM"}, "CD40-CD40L interaction [2]": {"target": "T1, CD40-CD40L interaction", "assay": "Expression of CD95 induced by CD40L on BL41 cells cultured with 3T6-CD40L fibroblasts (flow cytometry)", "assay_type": "cell-based", "conditions": "BL41 + 3T6-CD40L, 48 hours", "protocol": "Then, the affinity of these ligands for the CD40 molecule is evaluated using a biosensor (BIAcore™). The agonist or antagonist effect of the ligands was tested using two simple biological tests. In the first, the expression of the membranous molecule CD95 by transformed B cells (Burkitt's lymphoma) is studied after activation by the CD40-CD40L interaction (Schattner et al., 1996). In such a model, the CD40L partner is expressed on transfected fibroblasts (3T6-CD40L) (Buelens et al., 1997). The BL41 Burkitt's lymphoma cells are incubated with non-transfected 3T6 fibroblasts (FIGS. 3A and 3C) or with 3T6 fibroblasts transfected by CD40L (FIGS. 3B and 3D). After 48 hours, the expression of CD95 is evaluated by flow cytometry. The expression of CD95 is induced in the presence of CD40L (FIG. 3B). A commercial anti-CD40L antibody inhibits the consequences of the CD40-CD40L interaction (FIG. 3D).\nThe antagonist effect is evaluated by measurement of the decrease in the expression of CD95 induced by the CD40L in the presence of the different chemical ligands (see Table I). With the help of these tests, the most interesting ligands are chosen to evaluate their activity in vivo and in vitro in more complex models.\nThe lymphoma B cells express the CD95 molecule when they receive a signal via the CD40 molecule, which they express in a constitutive manner. This signal is generally conveyed by the CD40L (CD154) molecule expressed by another cell. The antagonist ligands inhibit the binding of CD40 on CD40L and thus […] the expression of CD95. The agonist ligands copy the CD40L molecule and induce the expression of CD95 even in the absence of the cell expressing CD40L.\nThe BL41 Burkitt's lymphoma cells (5.10^5/ml) are cultured in the presence of 3T6 fibroblasts (10^5/ml) transfected (3T6-CD40L) or not transfected with CD40L (3T6), and treated with mitomycin to stop their proliferation. The ligands are added at the start of the culture at the chosen concentration. After culture for 48 hours, expression of the CD95 molecule is measured by flow cytometry. The BL41 cells are distinguished from the fibroblasts using an anti-CD19 antibody (specific marker of the B cells)."}},
  "note": "Where a SMILES comes first, the peptide text is derived from it. Side-chain parts run from the residue outwards. [ ]: non-standard residue; d: D form. Ahx = NCCCCCC(=O)O",
  "data": [
    {"smiles": "C[C@H]1NC(=O)[C@H](CCCCNC(=O)CCCCCNC(=O)[C@H](Cc2ccc(O)cc2)NC(=O)[C@H](Cc2ccc(O)cc2)NC(=O)CNC(=O)[C@@H](N)CCCCN)NC(=O)[C@@H](C)NC(=O)[C@H](CCCCNC(=O)CCCCCNC(=O)[C@H](Cc2ccc(O)cc2)NC(=O)[C@H](Cc2ccc(O)cc2)NC(=O)CNC(=O)[C@@H](N)CCCCN)NC(=O)[C@@H](C)NC(=O)[C@H](CCCCNC(=O)CCCCCNC(=O)[C@H](Cc2ccc(O)cc2)NC(=O)[C@H](Cc2ccc(O)cc2)NC(=O)CNC(=O)[C@@H](N)CCCCN)NC1=O", "note": "[L4] (cyclo(K([Ahx-Tyr-Tyr-Gly-Lys])[dA]K([Ahx-Tyr-Tyr-Gly-Lys])[dA]K([Ahx-Tyr-Tyr-Gly-Lys])[dA]))", "values": [
      {"measurement": "cell mortality", "setting": "CD40-CD40L interaction [1]", "result": "substantial cell mortality"},
      {"measurement": "% of inhibition of the expression of CD95 induced by CD40L", "setting": "CD40-CD40L interaction [2]; ligand 0.5 μM", "result": 19, "unit": "%"},
      {"measurement": "% of inhibition of the expression of CD95 induced by CD40L", "setting": "CD40-CD40L interaction [2]; ligand 5 μM", "result": 36, "unit": "%"},
      {"measurement": "% of inhibition of the expression of CD95 induced by CD40L", "setting": "CD40-CD40L interaction [2]; ligand 10 μM", "result": 40, "unit": "%"},
      {"measurement": "% of inhibition of the expression of CD95 induced by CD40L", "setting": "CD40-CD40L interaction [2]; ligand 50 μM", "result": 22, "unit": "%"}
    ]}
  ]
}
